The source of these data is patent publication US20140335166A1, “Methods of Making and Using Nano Scale Particles” (priority 2013, published 2014).

For this test, the system named is Cultured liver cells. Kind of test: Phosphatidylcholine biosynthesis as measure of cell function in cultured liver cells incubated with ethanol. Type of test: cell-based. The settings on record: 100 mM ethanol, 24 hours. The procedure:
As an example of the effectiveness of using the PPC, the following experiments were conducted. Cultured liver cells were incubated for 24 hours with 100 mM ethanol in the presence of (1) water, (2) VEP/EPC (egg phosphatidylcholine), or (3) VEP/PPC. Agent-dependent alterations in cell function were determined by measuring phosphatidylcholine biosynthesis. Similar results were obtained in the three separate preparations of cultured cells, all of which are reflected in the Table 1 set forth below. Control cells are expressed as 100%, meaning full cellular function. A reduction below 100% represents a decrease in cell function.

As to `CCO` [Ethanol], the “reduction in cell function from control cells” value is on record as 63%. Where the note is “control cells = 100%, VEP/EPC (15 Mm EPC), VEP/PPC (15 Mm VEP and 30 Mm PPC)”, the “% Control ± SEM (phosphatidylcholine biosynthesis, cell function)” value turned out to be 37 ± 1 %.
